In patent US8008303B2, “Biphenyl derivatives and their use in treating hepatitis C” (AstraZeneca AB, priority 2005, dated 2011) one finds IC50 and TD50 data, which are given here for 24 molecules.

Data set [1] relates to HCV replicon cells Huh 9B. Kind of data set: HCV replicon assay (luciferase readout). In kind it is cell-based. In short, it runs like this:
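Compounds, made up at twice final strength (final DMSO 1%), were added to subgenomic replicon cells one day after plating. Incubation then ran 72 h at 37 °C, 5% CO2, without G418. Replication was quantified as firefly luciferase luminescence in lysed cells, with cytotoxicity assessed on a duplicate clear plate.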

In data set [2] the test system is HCV replicon cells Huh 9B. In kind it is cell-based.
Setting [3] is: Hepatitis C virus, 72 h, concentration reducing replicon level (luciferase activity) by 50% vs untreated cell control, 72 h incubation.
[4] abbreviates: concentration reducing total cell area by 50% relative to DMSO controls, methylene blue, absorbance 620 nm, 72 h incubation.

Like-named read-outs stand apart in the source and are kept apart here.

For `Cc1ccc(NC(=O)c2ccc(N3CCOCC3)cc2)cc1-c1ccc(C(=O)NCc2cccc(OC(F)(F)F)c2)cc1` [Example 92, 2′-Methyl-5′-(4-morpholin-4-yl-benzoylamino)-biphenyl-4-carboxylic acid 3-trifluoromethoxy-benzylamide], the IC50 in data set [1] (setting [3]) lay in the range of 1 to 5 µM. The TD50 entry in data set [2] (setting [4]) is recorded as “** (** > 50 μM)”.
The molecule `Cc1ccc(C(=O)Nc2ccc(N3CCOCC3)cc2)cc1-c1ccc(C(=O)N[C@H](CO)Cc2c[nH]c3ccccc23)cc1` [Example 51, 6-Methyl-biphenyl-3,4′-dicarboxylic acid 4′-{[(S)-1-hydroxymethyl-2-(1H-indol-3-yl)-ethyl]-amide} 3-[(4-morpholin-4-yl-phenyl)-amide]] returned a 50% inhibitory concentration (IC50) in data set [1] of 1 to 5 µM. For the same molecule, in data set [2], the TD50 result is recorded as “** (key: * < 50 μM; ** > 50 μM)”.
`CCCS(=O)(=O)N1CCN(Cc2ccc(NC(=O)c3ccc(-c4cc(NC(=O)[C@@H]5CCCN5)ccc4OC(F)(F)F)cc3)cc2)CC1` [Example 236, (S)-Pyrrolidine-2-carboxylic acid (4′-{4-[4-(propane-1-sulfonyl)-piperazin-1-ylmethyl]-phenylcarbamoyl}-6-trifluoromethoxy-biphenyl-3-yl)-amide] came in with an IC50 in data set [1] (setting [3]) of 1 to 5 µM. Moreover, the TD50 result in data set [2] (setting [4]) is given as “* (* < 50 μM)”.
The like results for `CNCC(=O)Nc1ccc(OC(F)(F)F)c(-c2ccc(C(=O)Nc3ccc(CN4CCN(S(=O)(=O)N(C)C)CC4)cc3)cc2)c1` [Example 240, 5′-(2-Methylamino-acetylamino)-2′-trifluoromethoxy-biphenyl-4-carboxylic acid [4-(4-dimethylsulfamoyl-piperazin-1-ylmethyl)-phenyl]-amide] were, in that order, below 1 µM and “* (* < 50 μM)”.
Consider `CCCS(=O)(=O)N1CCN(Cc2ccc(NC(=O)c3ccc(-c4cc(NC(=O)[C@H]5CCCCN5)ccc4OC(F)(F)F)cc3)cc2)CC1` [Example 234, (R)-Piperidine-2-carboxylic acid (4′-{4-[4-(propane-1-sulfonyl)-piperazin-1-ylmethyl]-phenylcarbamoyl}-6-trifluoromethoxy-biphenyl-3-yl)-amide], for which, in data set [1] (setting [3]), the half-inhibitory concentration (IC50) was below 1 µM. The TD50 entry in data set [2] (setting [4]) is recorded as “* (* < 50 μM)”.
The like results for `CS(=O)(=O)N1CCN(Cc2ccc(NC(=O)c3ccc(-c4cc(NC(=O)[C@@H]5CCN5C(=O)O)ccc4OC(F)(F)F)cc3)cc2)CC1` [Example 241, (S)-2-{4′-[4-(4-Methanesulfonyl-piperazin-1-ylmethyl)-phenylcarbamoyl]-6-trifluoromethoxy-biphenyl-3-ylcarbamoyl}-azetidine-1-carboxylic acid] were, in that order, below 1 µM and “* (* < 50 μM)”.
In data set [1], `Cc1ccc(C(=O)Nc2ccc(N3CCOCC3)cc2)cc1-c1ccc(C(=O)NCc2cccc(F)c2)cc1` [Example 5, 6-Methyl-biphenyl-3,4′-dicarboxylic acid 4′-(3-fluoro-benzylamide) 3-[(4-morpholin-4-yl-phenyl)-amide]] showed an IC50 of 1 to 5 µM. Further, the TD50 entry in data set [2] is recorded as “** (key: * < 50 μM; ** > 50 μM)”.
As for `O=C(Nc1ccc(CN2CCS(=O)(=O)CC2)cc1)c1ccc(-c2cccc(NC(=O)C3CCCCC3)c2)cc1` [Example 196, 3′-(Cyclohexanecarbonyl-amino)-biphenyl-4-carboxylic acid [4-(1,1-dioxo-1lambda*6*-thiomorpholin-4-ylmethyl)-phenyl]-amide], in data set [1] (setting [3]), the IC50 lay in the range of 1 to 5 µM. Further, the TD50 entry in data set [2] (setting [4]) is recorded as “* (* < 50 μM)”.
In data set [1], `Cc1ccc(C(=O)Nc2ccc(N3CCOCC3)cc2)cc1-c1ccc(C(=O)Nc2ccc(C(=O)N3CCCCC3)cc2)cc1` [Example 58, 6-Methyl-biphenyl-3,4′-dicarboxylic acid 3-[(4-morpholin-4-yl-phenyl)-amide] 4′-{[4-(piperidine-1-carbonyl)-phenyl]-amide}] showed an IC50 of 1 to 5 µM. For the same molecule, in data set [2], the TD50 result was “** (key: * < 50 μM; ** > 50 μM)”.
As for `Cc1ccc(C(=O)Nc2ccc(N3CCOCC3)cc2)cc1-c1ccc(C(=O)Nc2cccc(-c3ccn(C)n3)c2)cc1` [Example 26, 6-Methyl-biphenyl-3,4′-dicarboxylic acid 4′-{[3-(1-methyl-1H-pyrazol-3-yl)-phenyl]-amide} 3-[(4-morpholin-4-yl-phenyl)-amide]], the half-inhibitory concentration (IC50) in data set [1] is above 5 µM. Also, in data set [2], the TD50 result was “** (key: * < 50 μM; ** > 50 μM)”.
`Cc1ccc(NC(=O)C2CCCCC2)cc1-c1ccc(C(=O)Nc2ccc(CN3CCCC3)cc2)cc1` [Example 227, 5′-(Cyclohexanecarbonyl-amino)-2′-methyl-biphenyl-4-carboxylic acid (4-pyrrolidin-1-ylmethyl-phenyl)-amide] showed a concentration for half-maximal inhibition (IC50) in data set [1] (setting [3]) of 1 to 5 µM. The TD50 result in data set [2] (setting [4]) is listed as “* (* < 50 μM)”.
The like results for `Cc1ccc(C(=O)Nc2ccc(N3CCOCC3)cc2)cc1-c1ccc(CNCCN(C)C)cc1` [Example 102, 4′-[(2-Dimethylamino-ethylamino)-methyl]-6-methyl-biphenyl-3-carboxylic acid (4-morpholin-4-yl-phenyl)-amide] were, in that order, 1 to 5 µM and “* (* < 50 μM)”.
The matching figures for `Cc1ccc(NC(=O)C2CC2)cc1-c1ccc(NC(=O)c2ccc(CN3CCS(=O)(=O)CC3)cc2)cc1` [Example 149, N-[5′-(Cyclopropanecarbonyl-amino)-2′-methyl-biphenyl-4-yl]-4-(1,1-dioxo-1lambda*6*-thiomorpholin-4-ylmethyl)-benzamide]: below 1 µM and “* (* < 50 μM)”.
Regarding `Cc1ccc(C(=O)Nc2ccc(N3CCOCC3)cc2)cc1-c1ccc(C(=O)Nc2cccc3cc[nH]c23)cc1` [Example 48, 6-Methyl-biphenyl-3,4′-dicarboxylic acid 4′-[(1H-indol-7-yl)-amide] 3-[(4-morpholin-4-yl-phenyl)-amide]], the IC50 in data set [1] is 1 to 5 µM. Besides, the TD50 result in data set [2] is “** (key: * < 50 μM; ** > 50 μM)”.
The matching figures for `CNC(=O)c1ccc(NC(=O)c2ccc(C)c(-c3ccc(C(=O)Nc4ccc(CN5CCS(=O)(=O)CC5)cc4)cc3)c2)cc1` [Example 141, 6-Methyl-biphenyl-3,4′-dicarboxylic acid 4′-{[4-(1,1-dioxo-1lambda*6*-thiomorpholin-4-ylmethyl)-phenyl]-amide} 3-[(4-methylcarbamoyl-phenyl)-amide]]: 1 to 5 µM and “* (key: * < 50 μM; ** > 50 μM)”.
As for `Cc1cccc(CNC(=O)c2ccc(-c3cc(NC(=O)c4ccc(N5CCOCC5)cc4)ccc3C)cc2)c1` [Example 89, 2′-Methyl-5′-(4-morpholin-4-yl-benzoylamino)-biphenyl-4-carboxylic acid 3-methyl-benzylamide], in data set [1] (setting [3]), the IC50 lay in the range of 1 to 5 µM. Moreover, in data set [2] (setting [4]), the TD50 result is on record as “** (** > 50 μM)”.
In data set [1] (setting [3]), `Cc1cc(NC(=O)c2ccco2)ccc1-c1cccc(C(=O)Nc2ccc(CN3CCS(=O)(=O)CC3)cc2)c1` [Example 133, Furan-2-carboxylic acid {3′-[4-(1,1-dioxo-1lambda*6*-thiomorpholin-4-ylmethyl)-phenylcarbamoyl]-2-methyl-biphenyl-4-yl}-amide] returned a half-inhibitory concentration (IC50) of 1 to 5 µM. The TD50 result in data set [2] (setting [4]) is “* (* < 50 μM)”.
The like results for `Cc1ccc(NC(=O)c2ccc(CN3CCS(=O)(=O)CC3)cc2)cc1-c1ccc(C(=O)NCc2cccc(Cl)c2)cc1` [Example 162, 5′-[4-(1,1-Dioxo-1lambda*6*-thiomorpholin-4-ylmethyl)-benzoylamino]-2′-methyl-biphenyl-4-carboxylic acid 3-chloro-benzylamide] were, in that order, 1 to 5 µM and “* (* < 50 μM)”.
With `Cc1ccc(C(=O)Nc2ccc(N3CCOCC3)cc2)cc1-c1ccc(C(=O)Nc2ccc3cn[nH]c3c2)cc1` [Example 12, 6-Methyl-biphenyl-3,4′-dicarboxylic acid 4′-[(1H-indazol-6-yl)-amide] 3-[(4-morpholin-4-yl-phenyl)-amide]], in data set [1], the IC50 was in the range of 1 to 5 µM. Moreover, the TD50 entry in data set [2] is reported as “** (key: * < 50 μM; ** > 50 μM)”.
The molecule `Cc1ccc(NC(=O)C2CC2)cc1-c1ccc(C(=O)NCc2cccc(Cl)c2)cc1` [Example 216, 5′-(Cyclopropanecarbonyl-amino)-2′-methyl-biphenyl-4-carboxylic acid 3-chloro-benzylamide] had a half-inhibitory concentration (IC50) in data set [1] (setting [3]) above 5 µM. The TD50 entry in data set [2] (setting [4]) is recorded as “* (* < 50 μM)”.
On to `Cc1ccc(CNC(=O)c2ccc(-c3cc(C(=O)Nc4ccc(N5CCOCC5)cc4)ccc3C)cc2)cc1Cl` [Example 43, 6-Methyl-biphenyl-3,4′-dicarboxylic acid 4′-(3-chloro-4-methyl-benzylamide) 3-[(4-morpholin-4-yl-phenyl)-amide]], for which, in data set [1], the half-inhibitory concentration (IC50) was below 1 µM. Moreover, in data set [2], the TD50 result is given as “** (key: * < 50 μM; ** > 50 μM)”.
Take `Cc1ccc(NC(=O)NC2CCCCC2)cc1-c1ccc(C(=O)Nc2ccc(CN3CCS(=O)(=O)CC3)cc2)cc1` [Example 189, 5′-(3-Cyclohexyl-ureido)-2′-methyl-biphenyl-4-carboxylic acid [4-(1,1-dioxo-1lambda*6*-thiomorpholin-4-ylmethyl)-phenyl]-amide]: in data set [1] (setting [3]), the IC50 is below 1 µM. In data set [2] (setting [4]), the TD50 entry is on record as “* (* < 50 μM)”.
The molecule `CN1CCN(Cc2ccc(NC(=O)c3ccc(-c4cc(NC(=O)C5CCCCC5)ccc4Cl)cc3)cc2)CC1` [Example 249, 2′-Chloro-5′-(cyclohexanecarbonyl-amino)-biphenyl-4-carboxylic acid [4-(4-methyl-piperazin-1-ylmethyl)-phenyl]-amide] returned an IC50 in data set [1] (setting [3]) of 1 to 5 µM. In data set [2] (setting [4]), the TD50 result is on record as “* (* < 50 μM)”.
Consider `Cc1ccc(C(=O)Nc2ccc(N3CCOCC3)cc2)cc1-c1ccc(C(=O)Nc2ccc(C#N)cc2)cc1` [Example 24, 6-Methyl-biphenyl-3,4′-dicarboxylic acid 4′-[(4-cyano-phenyl)-amide] 3-[(4-morpholin-4-yl-phenyl)-amide]], for which the half-maximal inhibitory concentration (IC50) in data set [1] is above 5 µM. In addition, in data set [2], the TD50 entry is given as “** (key: * < 50 μM; ** > 50 μM)”.

One may read the IC50 as the concentration at which inhibition is half-maximal.
